Results taken from article PMC5390315 (Scientific Reports, 2017).
Read-outs that look alike come from different tables or passages of the source.

Tests used:
[1] = tested on: bovine brain tubulin; test: Inhibition of tubulin polymerization; format: biochemical; conditions: tubulin at 10 μM; read-out: Tubulin assembly IC50 ± S.D
Description: (§1) To evaluate the effect of the compounds on tubulin assembly in vitro[41], varying concentrations of compounds were preincubated with 10 μM bovine brain tubulin in 0.8 M monosodium glutamate (pH adjusted to 6.6 with HCl in a 2.0 M stock solution) at 30 °C and then cooled to 0 °C. After addition of 0.4 mM GTP, the mixtures were transferred to 0 °C cuvettes in a recording spectrophotometer and warmed to 30 °C. Tubulin assembly was followed turbidimetrically at 350 nm. […] The capacity of the test compounds to inhibit colchicine binding to tubulin was measured as described, except that the reaction mixtures contained 1 μM tubulin, 5 μM [^3H]colchicine and 1 or 5 μM test compound.

[2] = tested on: Jurkat; test: Antiproliferative MTT assay, Jurkat; format: cell-based, human; conditions: Homo sapiens, Jurkat, 72 h, mean ± SE
Description: (§2) Human T-cell leukemia (Jurkat) and human B-cell leukemia (SEM and RS4;11) cells were grown in RPMI-1640 medium (Gibco, Milano, Italy). Breast adenocarcinoma (MCF-7), human cervix carcinoma (HeLa), human lung adenocarcinoma (A549) and human colon adenocarcinoma (HT-29) cells were grown in DMEM medium (Gibco, Milano, Italy), all supplemented with 115 units/mL penicillin G (Gibco, Milano, Italy), 115 μg/mL streptomycin (Invitrogen, Milano, Italy), and 10% fetal bovine serum (FBS; Invitrogen, Milano, Italy). Stock solutions (10 mM) of the different compounds were obtained by dissolving them in DMSO. Individual wells of a 96-well tissue culture microtiter plate were inoculated with 100 μL of complete medium containing 8 × 10^3 cells. The plates were incubated at 37 °C in a humidified 5% CO2 incubator for 18 h prior to the experiments. After medium removal, 100 μL of fresh medium containing the test compound at different concentrations was added to each well in triplicate and incubated at 37 °C for 72 h. The percentage of DMSO in the medium never exceeded 0.25%. This was also the maximum DMSO concentration in all cell-based assays described below.

[3] = tested on: HeLa; test: Antiproliferative MTT assay, HeLa; format: cell-based, human; conditions: Homo sapiens, HeLa, 72 h, mean ± SE
Description: as §2

[4] = tested on: HUVECs; test: HUVEC scratch wound motility assay; format: cell-based, human
Description: (§3) HUVECs were prepared from human umbilical cord veins, as previously described. The adherent cells were maintained in M200 medium supplemented with LSGS (Low Serum Growth Supplement), containing FBS, hydrocortisone, hEGF, bFGF, heparin, gentamycin/amphotericin (Life Technologies, Monza, Italy). Once confluent, the cells were detached by a trypsin–EDTA solution and used in experiments from the first to sixth passages.
The motility assay for HUVECs was based on “scratch” wounding of a confluent monolayer. Briefly, HUVECs (1x10^5) were seeded onto 6-well plates coated with 0.1% collagen type I (BD Biosciences, Italy) in complete medium until a confluent monolayer was formed. The cells were wounded using a pipette tip, and wells were washed with PBS to remove undetached cells. Then, the cells were treated with the test compounds, and, at different times from the scratch, the cells were photographed under a light microscope. At all indicated time points, the wound width was measured in four areas and compared with the initial width.

[5] = tested on: HUVECs; test: Disruption of capillary-like tubes on Matrigel; format: cell-based, human; conditions: 24 h
Description: as §3
Matrigel matrix (Basement Membrane Matrix, BD Biosciences, Italy) was kept at 4 °C for 3 h, when 230 μL of Matrigel solution was added to each well of a 24-well plate. After gelling at 37 °C for 30 min, gels were overlaid with 500 μL of medium containing 6 × 10^4 HUVECs. The cells were incubated over Matrigel for 6 h to allow capillary tubes to form. Different concentrations of test compound were added in the cultures and incubated for different times, and the disappearance of existing vasculature was monitored and photographed (five fields for each well: the four quadrants and the center) at a 10x magnification. Phase contrast images were recorded using a digital camera and saved as TIFF files. Image analysis was carried out using ImageJ image analysis software, and dimensional (percent area covered by HUVECs and total length of HUVECs network per field) and topological parameters (number of meshes and branching points per field) were determined. Values were expressed as percent change from control cultures grown with complete medium.

[6] = tested on: SEM cells; test: Antiproliferative MTT assay, SEM; format: cell-based, human; conditions: Homo sapiens, 72 h, mean ± SE
Description: as §2

[7] = tested on: RS 4;11; test: Antiproliferative MTT assay, RS 4;11; format: cell-based, human; conditions: Homo sapiens, RS4-11, 72 h, mean ± SE
Description: as §2

[8] = tested on: tubulin; test: Inhibition of [3H]colchicine binding to tubulin; conditions: tubulin 1 μM, [3H]colchicine 5 μM
Description: as §1

[9] = tested on: panel of seven human tumor cell lines; test: Antiproliferative activity, range over panel of seven human tumor cell lines; format: cell-based; conditions: read-out: IC50 values, range over the cell line panel
Description: as §2

[10] = tested on: MCF-7; test: Antiproliferative MTT assay, MCF-7; format: cell-based, human; conditions: Homo sapiens, MCF7, 72 h, mean ± SE
Description: as §2

[11] = tested on: HT-29; test: Antiproliferative MTT assay, HT-29; format: cell-based, human; conditions: Homo sapiens, HT-29, 72 h, mean ± SE
Description: as §2

[12] = tested on: HUVECs; test: Cytotoxicity in HUVECs; format: cell-based; conditions: Homo sapiens, HUVEC; primary HUVECs
Description: as §3

[13] = tested on: PBL not stimulated with PHA; test: Cytotoxicity in resting peripheral blood lymphocytes; format: cell-based; conditions: Homo sapiens, Lymphocyte, 72 h, MTT, mean ± SEM, read-out: IC50 PBLresting
Description: (§4) Peripheral blood lymphocytes (PBL) from healthy donors were obtained from human peripheral blood (leucocyte rich plasma- buffy coats) from healthy volunteers using the Lymphoprep (Fresenius KABI Norge AS) gradient density centrifugation.
(§5) After extensive washing, cells were resuspended (1.0 × 10^6 cells/mL) in RPMI-1640 with 10% FBS and incubated overnight. For cytotoxicity evaluations in proliferating PBL cultures, non-adherent cells were resuspended at 5 × 10^5 cells/mL in growth medium, containing 2.5 μg/mL PHA (Irvine Scientific). Different concentrations of the test compounds were added, and viability was determined 72 h later by the MTT test. For cytotoxicity evaluations in resting PBL cultures, non-adherent cells were resuspended (5 × 10^5 cells/mL) and treated for 72 h with the test compounds, as described above.

[14] = tested on: PBL stimulated with PHA; test: Cytotoxicity in PHA-stimulated peripheral blood lymphocytes; format: cell-based; conditions: Homo sapiens, Lymphocyte, 72 h, MTT, mean ± SEM, read-out: IC50 PBLPHA
Description: as §4, §5

[15] = tested on: A549; test: Antiproliferative MTT assay, A549; format: cell-based, human; conditions: Homo sapiens, A549, 72 h, mean ± SE
Description: as §2

Row | IC50 [1] | IC50 [2] | IC50 [3] | IC50 [10] | melting point | IC50 [11] | IC50 [15] | Colchicine binding % inhibition ± S.D, 5 μM drug [8] | IC50 ([9]; Homo sapiens) | SMILES | HUVEC cell migration (wound healing) ([4]; 10 nM, 6 and 24 h) | antivascular effect on Matrigel preformed tubular structures ([5]; 10 nM) | IC50 [6] | IC50 [7] | Colchicine binding % inhibition ± S.D, 1 μM drug [8] | IC50 [9] | IC50 [12] | IC50 [13] | IC50 [14] | HUVEC cell migration (wound healing) ([4]; 100 nM, 6 h and 24 h) | antivascular effect on Matrigel preformed tubular structures ([5]; 100 nM (highest concentration))
1 | 1200 ± 100 nM | 73.2 ± 5.2 nM | 2.1 ± 0.5 nM | 1.1 ± 0.5 nM | 104 to 116 °C | 0.5 ± 0.1 nM | 12.6 ± 5.4 nM | 74 ± 5% | 0.5 to 73.2 nM | COc1cc(-c2nc(C)oc2-c2ccc3ccccc3c2)cc(OC)c1OC [Compound 4a, 4-(3,4,5-Trimethoxyphenyl)-2-methyl-5-(naphthalen-3-yl)oxazole] | – | – | 40.2 ± 11 nM | 14.3 ± 6.2 nM | 47 ± 0.8% | – | > 100000 nM | 15500 ± 1500 nM | 21100 ± 1200 nM | – | –
2 | 1300 ± 100 nM | 50.7 ± 10.8 nM | 2 ± 0.8 nM | 0.4 ± 0.08 nM | 116 to 118 °C | 1.9 ± 0.8 nM | 1.5 ± 0.44 nM | 72 ± 2% | – | CCOc1ccc(-c2nc(C)oc2-c2cc(OC)c(OC)c(OC)c2)cc1 [Compound 5f, 4-(4-Ethoxyphenyl)-5-(3,4,5-trimethoxyphenyl)-2-methyloxazole] | – | – | 13.3 ± 4.2 nM | 11.9 ± 6.3 nM | – | – | > 100000 nM | 34500 ± 4500 nM | 17700 ± 2100 nM | significantly reduced | did not show a significant antivascular effect

Row | SMILES | IC50 [1] | IC50 [2] | IC50 [3] | IC50 [10] | melting point | IC50 [11] | IC50 [15] | Colchicine binding % inhibition ± S.D, 5 μM drug [8] | IC50 ([9]; Homo sapiens) | HUVEC cell migration (wound healing) ([4]; 10 nM, 6 and 24 h) | antivascular effect on Matrigel preformed tubular structures ([5]; 10 nM) | IC50 [6] | IC50 [7] | Colchicine binding % inhibition ± S.D, 1 μM drug [8] | IC50 [9] | IC50 [12] | IC50 [13] | IC50 [14] | HUVEC cell migration (wound healing) ([4]; 100 nM, 6 h and 24 h) | antivascular effect on Matrigel preformed tubular structures ([5]; 100 nM (highest concentration))
3 | COc1ccc(/C=C\c2cc(OC)c(OC)c(OC)c2)cc1O [CA-4, combretastatin A-4, reference compound] | […] | 5 ± 0.6 nM | 4 ± 0.1 nM | – | – | – | – | – | – | […] | significant antivascular activity | 5 ± 0.1 nM | 0.8 ± 0.2 nM | 93 ± 0.8% | 0.8 to 3100 nM | – | – | – | – | –
